According to patent US20250345378A1 (priority 2022, published 2025):
Where two headings read alike, the source gives them in different places.

Experiments:
E. coli (ATCC 700928) = assay: Mouse UTI model, CK618 with TMP/SMX vs single agents and Phase 1b LBP-EC01 (Study 21-LOC-035); assay type: in vivo, C3H/OuJ mice; settings: BID IV at 48, 54, 72, 78, 96 hours p.i.
Protocol: For the LBP-EC01 from the Phase 1b study treatment, animals received the Phase 1 Clinical Trial Material. Bactrim was formulated at a concentration of 6.3 mg/mL.

[1] = test system: 304 E. coli clinical isolates; assay type: cell-based, Escherichia coli; settings: 304-isolate panel
Protocol: (§1) Phage cocktail CK618 was tested in combination with and alongside antibiotics against two isolate panels. The first assay used a panel of 88 contemporaneous urinary tract infection (UTI) isolates from North America, Europe, Latin America, and Asia. […] The second assay used a panel made up of a 300-strain clinical isolate panel (Table 14) with an additional 4 strains of interest. […] Four of the same SOC antibiotics tested against the 88-isolate panel were tested against this panel. The non-SOC antibiotics were not included due to their limited use in clinical settings, and nitrofurantoin was not included due to the low probability of resistance to this drug.
(§2) For both isolate panels, antibiotic concentrations tested were determined by using Clinical and Laboratory Standards Institute (CLSI) or European Committee on Antimicrobial Susceptibility Testing (EUCAST) breakpoints at concentrations that kill susceptible isolates but allow intermediate or resistant isolates to grow in the standard AST microdilution assay (Table 17).
(§3) The composition of the proposed Phase 2 CRISPR-enhanced bacteriophage (CRISPR-phage, hereafter termed ‘crPhage’) cocktail (CK618) has been updated from the CK570 to include six bacteriophages as compared to three bacteriophages in CK570. Bacteriophage cocktail CK618, was prepared such that all bacteriophages had equivalent titers in the final cocktail. The cocktail was then mixed with bacteria to obtain final titers of 1×10^6 plaque-forming unit (PFU)/mL/phage for the cocktail and 1×10^5 colony-forming unit (CFU)/mL for the bacteria, resulting in a multiplicity of infection (MOI) of 10 for each bacteriophage in a sample. Briefly, 5 μl of each sample (CK618 alone, CK618 and antibiotics, antibiotics alone, or medium alone) was added to 5 μl of optical density (OD)-normalized bacterial isolate and 40 μl LB medium. Reactions were incubated at 37° C. with shaking and OD measurements were taken each hour for 20 hours.
(§4) Host range percentage is the percent of isolates that responded to treatment of antibiotics or CK618. In the case of the 88-isolate panel, results were analyzed on the complete panel as well as the subset of classified as multidrug-resistant (MDR) (n=21) and beta-lactam-resistant (n=31).
(§5) The first assay used a panel of 88 contemporaneous isolates. Twenty-one of those strains are classified as MDR, with resistance to 3 or more antibiotic classes. […] The second assay used the panel made up of a 300-strain clinical isolate panel with an additional 4 strains of interest.
(§6) Antibiotic concentrations tested were determined by using CLSI or EUCAST breakpoints at concentrations that kill susceptible strains but allow intermediate or resistant strains to grow in the standard AST microdilution assay (Table 27). LBP-EC01 v.2 was combined with bacteria resulting in a MO of 10 for each bacteriophage in a sample. In the case of the 88-isolate panel, results were analyzed on the complete panel as well as the subset of isolates classified as multidrug-resistant (MDR) (n=21) and beta-lactam-resistant (n=31).

[2] = test system: 88 urinary tract infection E. coli isolates; assay type: cell-based, Escherichia coli
Protocol: as §1, §2, §3, §4, §5, §6

In the case of Trimethoprim/Sulfamethoxazole [TMP/SXT], the “bacterial burden in bladder relative to vehicle and LBP-EC01 from the Phase 1b study, monotherapy” value (E. coli (ATCC 700928)) is reported as “significant decrease in bacterial burden”, the “Host range % on MDR subset (n = 93), Combination: Antibiotic + LBP-CK618” value [1] is reported as 75.3% and the “Host range % on MDR subset (n = 93), Single agent treatment” value [1] is reported as 17.2%. For the same substance, the “Host range % on beta-lactam-resistant subset (n = 91), Combination: Antibiotic + LBP-CK618” value [1] was 78.0%, the “Host range % on beta-lactam-resistant subset (n = 91), Single agent treatment” value [1] was 29.7% and the “Host Range % on MDR Subset (n = 93), Combination Antibiotic + LBP-EC01 v.2” value ([1]; MDR subset, antibiotic combined with LBP-EC01 v.2) was 75.3%. The “Host range % on MDR subset (n = 93), Single agent treatment” value ([1]; MDR subset, single agent) was 17.2%, the “Host Range % on all Strains (n = 304), Combination: Antibiotic + LBP-EC01 v.2” value ([1]; all strains, antibiotic combined with LBP-EC01 v.2) was 81.9% and the “Host Range % on all Strains (n = 304), Single agent treatment” value ([1]; all strains, single agent) was 46.4%. For the same substance, the “Host Range % on Beta-lactam-Resistant Subset (n = 91), Combination: Antibiotic + LBP-EC01 v.2” value ([1]; beta-lactam-resistant subset, antibiotic combined with LBP-EC01 v.2) was 78.0%, the “Host range % on beta-lactam-resistant subset (n = 91), Single agent treatment” value ([1]; beta-lactam-resistant subset, single agent) was 29.7% and the “Host Range % on Beta-lactam-Resistant Subset (n = 31), Combination: Antibiotic + CK618 v.2” value ([2]; 88-isolate panel) was 83.9%. The “Host Range % on Beta-lactam-Resistant Subset (n = 31), Single agent treatment” value ([2]; 88-isolate panel) was 25.8%, the “Host Range % on MDR Subset (n = 21), Combination: Antibiotic + CK618 v.2” value ([2]; 88-isolate panel) was 82.5% and the “Host Range % on MDR Subset (n = 21), Single agent treatment” value ([2]; 88-isolate panel) was 19.0%. The “Host Range % on all Strains (n = 88), Single agent treatment” value ([2]; antibiotic at breakpoint concentration (Table 17), cocktail 1 × 10^6 PFU/ml per bacteriophage, MOI 10) was 42.8% and the “Host Range % on all Strains (n = 88), Combination: Antibiotic + CK618 v.2” value ([2]; antibiotic at breakpoint concentration plus cocktail 1 × 10^6 PFU/ml per bacteriophage) was 85.6%.
